Values belong to the molecule of their own block, whether it stands above or below them.
What was measured:
[1] = Organic-solvent extraction of microbial inhibitors from an agro-waste hydrolysate mimic; type: physicochemical; conditions: for Inhibitor extraction, phase separation by centrifugal force / Inhibitor extraction, phase separation by separating funnel: solvent bis-(2-ethylhexyl) sebacate; for Ferulic acid removal / Furfural removal / HMF removal / Syringaldehyde removal / TRS removal / Vanillic acid removal / Vanillin removal / TRS (total reducing sugar) after extraction: Vaqueous:Vorganic = 2:1; for TRS (total reducing sugar) after extraction: standard 52.00 g/L
Text: Media composition was designed according to the inhibitory compound limit concentration reported in the literature for bio-butanol producing solventogenic Clostridia (Baral et al. Microbial inhibitors: formation and effects on acetone-butanol-ethanol fermentation of lignocellulosic biomass. Applied microbiology and biotechnology, Vol. 98(22), 2014: 9151-9172; Qureshi et al. Production of butanol (a biofuel) from agricultural residues: Part I—Use of barley straw hydrolysate. Biomass and bioenergy, Vol. 34(4), 2010: 559-565). Different volume ratio of the hydrolysate mimic and organic solvents, such as (5:1), (3:1), (2:1), (1:1) and (1:2) (vaqueous:vorganic) were tried in order to minimize extractant expenditure. Organic and aqueous phase mixing was carried out by a propeller impeller. Rotation rate (100, 200, 250, 300 and 400 rpm) and operation-time (15, 30, 45, 60 and 90 min) were tested at room temperature (25° C.). A comparative study between settling through separating funnel vs. centrifugal force assisted separation was also made to guarantee an optimal recovery of the broth phase.
A complex mixture of several reduced sugar compounds (e.g. as glucose, fructose, and xylose) and microbial inhibitors (furfural, HMF, acetic acid, levulinic acid, vanillin, vanillic acid, feluric acid and syringaldehyde) were produced during the pretreatment step (hydrolysis). In order to analyse these compounds, liquid samples were collected and analyzed using liquid chromatography-mass spectrometry (LC-MS) and liquid chromatography-tandem mass spectrometry (LC/MS-MS) equipped with a ZORBAX Carbohydrate column (5 μm, 150×4.6 mm ID column) (Agilent Technologies, USA) with D6 glucose as the internal standard and a Biobasic-18 column (5 μm, 250×4.6 mm ID) (Agilent Technologies, USA) with phenylethanol-D5 as the internal standard. […] Methanol water (8:2) and acetonitrile water (8.5:1.5) were used to dilute the sample before inhibitor and carbohydrate analysis. […]

[2] = test system: solventogenic Clostridia (ABE fermentation); conditions: cited from earlier work; for Inhibitory concentration: ABE fermentation
cellulase enzyme = conditions: cited from earlier work
[3] = test system: Clostridium acetobutylicum NRRL B-582 (ATCC-824) (CA); assay: Bio-compatibility (solvent toxicity) batch ABE fermentation, CA; conditions: for ABE / Butanol: CA
Protocol: (§1) Clostridium acetobutylicum NRRL B-582 (ATCC-824) (CA) and Clostridium beijerinckii NRRL B-466(CB) were considered for current investigation to produce bio-butanol from different brewery industry wastes. They were kindly provided by Agricultural Research Station, USDA (USA). The microorganisms were grown and maintained in peptone-yeast extract-glucose (PYG) media under anaerobic condition (vegetative growth) at 37±1° C. and 150 rpm for 24 h and 17 h, respectively, before being transferred into the fermentation medium. The medium (g L^−1) comprised: glucose (10); yeast extract (10); peptone (5); tryptone (5); cysteine-HCl (0.5); K2HPO4 (2.04); KH2PO4 (0.04); FeSO4*7H2O (1.1×10^−3); CaCl2 (8×10^−3); MgSO4*7H2O (0.0192); NaCl (0.08); and NaHCO3 (0.4). 125 mL serum bottles (working volume 50 mL) were used for both butanol production and inoculum development (Maiti et al., January 2016, Maiti et al., August 2015). Anaerobic conditions were maintained within the bottle by sparging N2 for 10 minutes and immediately sealed by an aluminum crimp seal containing silicone septum (Fisher scientific, Canada) by means of a hand operated crimper (E-Z Crimper™, VWR, Ontario, Canada). Prior to culture development, the medium was sterilized for 20 min at 121±1° C. About 10% (v/v) (dry cell weight […]) of microbial culture in its exponential phase of growth (OD600nm=1.3-1.5) was used as inoculum for all the experiments conducted in this investigation.
(§2) Set-1, set-4 and set-5 were included as control-1, control-2 and control-3 respectively. All the experiments were carried out in P2 nutrient media as described later in batch fermentation section.
(§3) Batch fermentation was performed in 125 mL serum vials (working volume of 50 mL) at pH 6.7±0.1. The P2 medium was sterilized at 121±1° C. for 20 min. Prior to fermentation, anaerobic conditions for each bottle were maintained by sparging the medium with N2 for 10 minutes and immediately closing with an aluminum crimp seal containing silicon septum (Fisher scientific, Canada) by means of a hand-operated crimper (E-Z Crimper™, VWR, Ontario, Canada). A modified P2 medium, with the following composition, was used for fermentation experiments: Buffer→KH2PO450 g/L, K2HPO450 g/L, ammonium acetate 220 g/L; Minerals→MgSO4*7H2O 20 g/L, MnSO4*H2O 1 g/L, FeSO4*7H2O 1 g/L, NaCl 1 g/L; Vitamins→thiamin 0.1 g/L, biotin 0.001 g/L). Since brewery industry wastes were already enriched with yeast protein, no additional yeast protein nor peptone were supplemented.
(§4) The fermentation was initiated by inoculating the P2 medium with the seed cultures at a ratio of 10% (v:v). […] Fermentation experiments were performed at 37±1° C. with shaking at 150 rpm for 72 h in duplicates. 1 mL of culture broth from each batch assay was used for metabolite analysis. Data described here present average values from duplicate runs for duplicate samples.
(§5) To determine the different metabolites produced during ABE fermentation (i.e. butanol, ethanol, acetone, butyric acid, and acetic acid) liquid samples from each fermentation broth were collected and analyzed using gas chromatography (GC) (GC7890B, Agilent Technologies, USA) equipped with a FID detector and a HP-INNOWax™ column (30 m, 0.25 mm ID, 0.25 μm df). Isobutanol was used as the internal standard. Before injecting the sample (1 mL) in the GC for products analysis, the sample was centrifuged for 5 minutes at 7650×g and the supernatant was filtered by 0.45 μm syringe filter. The GC conditions comprised: helium carrier gas at a flow rate of 1 mL/min with a temperature ramp from the initial temperature of 50° C. to 150° C.

[4] = test system: Clostridium beijerinckii NRRL B-466 (CB); assay: Bio-compatibility (solvent toxicity) batch ABE fermentation, CB
Protocol: as §1, §2, §3, §4, §5

[5] = homogenizer rotational speed 100 rpm
[6] = homogenizer rotational speed 200 rpm
[7] = homogenizer rotational speed 250 rpm
[8] = homogenizer rotational speed 300 rpm
[9] = homogenizer rotational speed 400 rpm
[10] = Extraction 1, hydrolysate mimic
[11] = Extraction 2, hydrolysate mimic
[12] = Extraction 3, hydrolysate mimic
[13] = Extraction 4, hydrolysate mimic
[14] = first stage, ratio 2:1, hydrolysate mimic
[15] = simulated synthetic media as well as waste hydrolysate, ex-situ detoxification
[16] = Control-2 (glucose + BIS) + extraction (2:1 mimic:organic solvent) before fermentation
[17] = Set-7 (10 times diluted BIS) + extraction (2:1)
[18] = Set-8 (50 times diluted BIS) + extraction (2:1)

Structure (SMILES): COc1cc(C=O)cc(OC)c1O [Syringaldehyde, syringaldehyde]
Inhibitor extraction, phase separation by centrifugal force [1, 5]: 100% | Inhibitor extraction, phase separation by separating funnel [1, 5]: 100% | Inhibitor extraction, phase separation by centrifugal force [1, 6]: 100% | Inhibitor extraction, phase separation by separating funnel [1, 6]: 100% | Inhibitor extraction, phase separation by centrifugal force [1, 7]: 100% | Inhibitor extraction, phase separation by separating funnel [1, 7]: 100% | Inhibitor extraction, phase separation by centrifugal force [1, 8]: 100% | Inhibitor extraction, phase separation by separating funnel [1, 8]: 100% | Inhibitor extraction, phase separation by centrifugal force [1, 9]: 100% | Inhibitor extraction, phase separation by separating funnel [1, 9]: 100% | Inhibitory concentration [2]: >0.05 g/L | Concentration that stopped ABE production [2]: 2. (0.3-1.0 g/L) stopped ABE production | Concentration showing strong inhibition on cellulase enzyme activity (cellulase enzyme): 1. (0.05 g/L) showed strong inhibition

Inhibitor extraction, phase separation by centrifugal force [1, 5]: 92% | Inhibitor extraction, phase separation by separating funnel [1, 5]: 90% | Inhibitor extraction, phase separation by centrifugal force [1, 6]: 93% | Inhibitor extraction, phase separation by separating funnel [1, 6]: 91% | Inhibitor extraction, phase separation by centrifugal force [1, 7]: 94% | Inhibitor extraction, phase separation by separating funnel [1, 7]: 93% | Inhibitor extraction, phase separation by centrifugal force [1, 8]: 94% | Inhibitor extraction, phase separation by separating funnel [1, 8]: 93% | Inhibitor extraction, phase separation by centrifugal force [1, 9]: 96% | Inhibitor extraction, phase separation by separating funnel [1, 9]: 93%
Structure (SMILES): COc1cc(C(=O)O)ccc1O [Vanillic acid, vanillic acid]
Inhibitory concentration [2]: >1 g/L | Concentration that stopped bio-butanol production [2]: 1. (>1 g/L) stopped bio-butanol

Structure (SMILES): CCCCC(CC)COC(=O)CCCCCCCCC(=O)OCC(CC)CCCC (stereo not shown) [bis-(2-ethylhexyl) sebacate]
Ferulic acid removal [1, 10]: 97% | Furfural removal [1, 10]: 79% | HMF removal [1, 10]: 78% | Syringaldehyde removal [1, 10]: 93% | TRS removal [1, 10]: 0% | Vanillic acid removal [1, 10]: 93% | Vanillin removal [1, 10]: 95% | TRS (total reducing sugar) after extraction [1, 10]: 52.00 g/L | Ferulic acid removal [1, 11]: 99% | Furfural removal [1, 11]: 97% | HMF removal [1, 11]: 96% | Syringaldehyde removal [1, 11]: 99% | TRS removal [1, 11]: 0% | Vanillic acid removal [1, 11]: 97% | Vanillin removal [1, 11]: 97% | TRS (total reducing sugar) after extraction [1, 11]: 52.00 g/L | Ferulic acid removal [1, 12]: 100% | Furfural removal [1, 12]: 100% | HMF removal [1, 12]: 100% | Syringaldehyde removal [1, 12]: 100% | TRS removal [1, 12]: 0% | Vanillic acid removal [1, 12]: 100% | Vanillin removal [1, 12]: 100% | TRS (total reducing sugar) after extraction [1, 12]: 52.00 g/L | Ferulic acid removal [1, 13]: 100% | Furfural removal [1, 13]: 100% | HMF removal [1, 13]: 100% | Syringaldehyde removal [1, 13]: 100% | TRS removal [1, 13]: 0% | Vanillic acid removal [1, 13]: 100% | Vanillin removal [1, 13]: 100% | TRS (total reducing sugar) after extraction [1, 13]: 52.00 g/L | Extraction efficiency for phenolic compounds [1, 14]: > 93% | Extraction efficiency towards furan derivatives [1, 14]: 78-79% | Removal of the inhibitors from the mimic synthetic media ([1]; set-10 and set-11 (10 and 50 times diluted BIS), extraction 2:1): > 99% | Extraction of furan derivatives [1, 15]: More than 80% | Extraction of phenolic compounds [1, 15]: more than 95% | Extraction of reducing sugar [1, 15]: almost no extraction | ABE [3, 16]: 13.96 ± 0.3 g/L | Butanol [3, 16]: 10.25 ± 0.5 g/L | ABE [3, 17]: 12.5 ± 0.2 g/L | Butanol [3, 17]: 9.13 ± 0.2 g/L | ABE [3, 18]: 12.2 ± 0.3 g/L | Butanol [3, 18]: 9.1 ± 0.3 g/L | Average increase in bio-butanol production in comparison with control 1/set-1 ([3]; set-9: control 2 after extraction, both bacterial strains): 8-10% | ABE [4, 16]: 13.15 ± 0.3 g/L | Butanol [4, 16]: 9.58 ± 0.2 g/L | ABE [4, 17]: 11.48 ± 0.4 g/L | Butanol [4, 17]: 8.62 ± 0.3 g/L | ABE [4, 18]: 11.0 ± 0.3 g/L | Butanol [4, 18]: 8.4 ± 0.2 g/L

Inhibitor extraction, phase separation by centrifugal force [1, 5]: 97% | Inhibitor extraction, phase separation by separating funnel [1, 5]: 94% | Inhibitor extraction, phase separation by centrifugal force [1, 6]: 96% | Inhibitor extraction, phase separation by separating funnel [1, 6]: 94% | Inhibitor extraction, phase separation by centrifugal force [1, 7]: 97% | Inhibitor extraction, phase separation by separating funnel [1, 7]: 93% | Inhibitor extraction, phase separation by centrifugal force [1, 8]: 95% | Inhibitor extraction, phase separation by separating funnel [1, 8]: 94% | Inhibitor extraction, phase separation by centrifugal force [1, 9]: 97% | Inhibitor extraction, phase separation by separating funnel [1, 9]: 96%
Structure (SMILES): COc1cc(/C=C/C(=O)O)ccc1O [Ferulic acid, ferulic acid]
Inhibitory concentration [2]: > 0.3 g/L | Concentration that inhibited butanol production [2]: 1. (>0.3 g/L) inhibited butanol production

— patent US10662445B2, “Process for the production of bio-butanol by fermentation of glycosidic waste matter” (priority 2018, dated 2020)
